Assay results from PubChem BioAssay (NCI).
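Test compounds were applied to cells in 96-well plates for 48 hours at 5 doses. GI50 is the concentration that inhibits growth by half. At the TGI there is no net growth.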

Key:
Test in all cases: NCI tumour cell line growth inhibition, 48 h
RXF 393 renal = test system: RXF 393 renal
MOLT-4 leukemia = test system: MOLT-4 leukemia
CAKI-1 renal = test system: CAKI-1 renal
UO-31 renal = test system: UO-31 renal
K-562 leukemia = test system: K-562 leukemia
SF-295 CNS = test system: SF-295 CNS
EKVX NSCLC = test system: EKVX NSCLC
SF-539 CNS = test system: SF-539 CNS
NCI-H23 lung = test system: NCI-H23 lung
SNB-75 CNS = test system: SNB-75 CNS

Compound | TGI (RXF 393 renal) | TGI (MOLT-4 leukemia) | TGI (CAKI-1 renal) | TGI (UO-31 renal) | TGI (K-562 leukemia) | TGI (SF-295 CNS) | TGI (EKVX NSCLC) | TGI (SF-539 CNS) | TGI (NCI-H23 lung) | TGI (SNB-75 CNS) | GI50 (RXF 393 renal) | GI50 (MOLT-4 leukemia) | GI50 (CAKI-1 renal) | GI50 (UO-31 renal) | GI50 (K-562 leukemia) | GI50 (SF-295 CNS) | GI50 (EKVX NSCLC) | GI50 (SF-539 CNS) | GI50 (NCI-H23 lung) | GI50 (SNB-75 CNS)
CNNC1=NS(=O)(=O)c2cc(C)c(Cl)cc2S1 | > 10 µM | > 10 µM | > 10 µM | 0.0901 µM | > 10 µM | > 10 µM | > 10 µM | > 10 µM | > 10 µM | > 10 µM |  |  |  |  |  |  |  |  |  | 
CN1CCN(c2nc3ccccc3nc2C(=O)c2ccc(Cl)cc2)CC1 | 77.3 µM | > 100 µM | > 100 µM | > 100 µM | > 100 µM | > 100 µM | > 100 µM | > 100 µM | > 100 µM | > 100 µM |  |  |  |  |  |  |  |  |  | 
COc1ccc2c(c1)c1nn(CCN(C)C)c3ccc4c(=O)n(CCN(C)C)c(=O)n2c4c13 | 0.38 µM | 0.197 µM | 0.601 µM | 0.329 µM | 0.448 µM | 0.224 µM | 0.405 µM | 1.77 µM | 0.231 µM | 0.0778 µM |  |  |  |  |  |  |  |  |  | 
O=S(=O)(c1cc(Cl)ccc1Cl)N1CCN(c2ccc(Cl)c(Cl)c2)CC1 | 52.2 µM | > 100 µM | 45.3 µM | > 100 µM | > 100 µM | 50.5 µM | > 100 µM | 53.5 µM | > 100 µM | 33.1 µM |  |  |  |  |  |  |  |  |  | 
O=C(NCCN1C(=O)CN=C(c2ccc(Cl)cc2)c2cc(Cl)ccc21)OCc1ccccc1 | 23.8 µM | > 100 µM | 31.9 µM | 24.7 µM | 31.1 µM | 29.4 µM | 66.6 µM | 38.2 µM | 33.8 µM | 42.2 µM |  |  |  |  |  |  |  |  |  | 
COc1ccc(/C=C2\CN(C(=O)CCN3CCC(=NO)CC3)C/C(=C\c3ccc(OC)cc3)C2=O)cc1 | 3.15 µM | 26.9 µM | 3.74 µM | 2.94 µM | > 100 µM | 7.69 µM | 17.6 µM | 3.18 µM | 6.37 µM | 9.33 µM | 1.68 µM | 2.95 µM | 1.82 µM | 1.59 µM | 1.2 µM | 2.77 µM | 4.04 µM | 1.71 µM | 2.47 µM | 2.14 µM
O=[N+]([O-])c1cccc(N=C2c3ccccc3CN2c2cccc([N+](=O)[O-])c2)c1 | > 100 µM | > 100 µM | > 100 µM | > 100 µM | > 100 µM | > 100 µM | > 100 µM | > 100 µM | > 100 µM | 73.5 µM |  |  |  |  |  |  |  |  |  | 
COc1ccccc1/C=C1\Sc2scc(-c3cccc([N+](=O)[O-])c3)[n+]2C1=O | 10.7 µM | 3.44 µM | 6.24 µM | 9.86 µM | > 100 µM | 40.2 µM | 28 µM | 3.56 µM | 29.6 µM | 34.4 µM |  |  |  |  |  |  |  |  |  | 
CC(NC1=CC(=O)c2ncccc2C1=O)C(O)c1ccccc1 (stereo not given) | 22.2 µM | 41.8 µM | 16.2 µM | 17.2 µM | 13.2 µM | 14.9 µM | 29.5 µM | 19.7 µM | > 19.8 µM | 9.6 µM |  |  |  |  |  |  |  |  |  | 
CN(C)CCN1C(=O)CC[C@@]2(C)C1=CC[C@@H]1[C@@H]2CC[C@@]2(C)[C@H]1CC[C@]2(C)O | > 100 µM | > 100 µM | > 100 µM | > 100 µM | > 100 µM | > 100 µM | > 100 µM | > 100 µM | > 100 µM | > 100 µM |  |  |  |  |  |  |  |  |  | 
COC(=O)C1Cc2c([nH]c3ccccc23)C(c2cccc(O)c2)N1 (stereo not given) | 55.4 µM | > 100 µM | > 100 µM | > 100 µM | > 100 µM | > 100 µM | > 100 µM | > 100 µM | 96.8 µM | 74.3 µM |  |  |  |  |  |  |  |  |  | 
S=C(NNC1=NCCCN1)Nc1ccccc1 | > 100 µM | > 100 µM | > 100 µM | > 100 µM | > 100 µM | > 100 µM | > 100 µM | > 100 µM | > 100 µM | > 100 µM |  |  |  |  |  |  |  |  |  | 
CC12CC3CC/C(=N\O)C(C1)C3(N1CCOCC1)C/C2=N/O (stereo not given) | > 100 µM | > 100 µM | > 100 µM | > 100 µM | > 100 µM | > 100 µM | > 100 µM | > 100 µM | > 100 µM | 94.8 µM |  |  |  |  |  |  |  |  |  | 
N#C/C(=C1\N=C(c2ccccc2O)Oc2ccccc21)c1ccc([N+](=O)[O-])cc1 | > 100 µM | > 100 µM | > 100 µM | > 100 µM | > 100 µM | > 100 µM | > 100 µM | > 100 µM | > 100 µM | > 100 µM |  |  |  |  |  |  |  |  |  | 
Cc1cc(C)c(S(=O)(=O)N[C@@H](/C=C(\Br)CO)C(C)C)c(C)c1 | 63.3 µM | 75.3 µM | > 100 µM | > 100 µM | 50.4 µM | > 100 µM | > 100 µM | > 100 µM | > 100 µM | > 100 µM |  |  |  |  |  |  |  |  |  | 
COC(=O)c1ccc2c(c1)CC1(C2)Cc2cc3c(c(C(=O)OC)c2C1)CCCC3 (stereo not given) | > 100 µM | > 100 µM | > 100 µM | > 100 µM | > 100 µM | > 100 µM | > 100 µM | > 100 µM | > 100 µM | > 100 µM |  |  |  |  |  |  |  |  |  | 
O=C(c1ccccc1)c1nn(-c2ccc(Cl)cc2)c2nc3nc(-c4ccccc4)cc(=O)n3nc12 | > 100 µM | > 100 µM | > 100 µM | > 100 µM | > 100 µM | 63.1 µM | > 100 µM | 45.4 µM | > 100 µM | 97.9 µM | 68.9 µM | 37.9 µM | > 100 µM | 25.7 µM | 50.1 µM | 23.5 µM | 30.3 µM | 22.4 µM | 65.6 µM | 28.8 µM
CSCCC(NCc1c(O)ccc2ccc(=O)oc12)C(=O)O (stereo not given) | > 100 µM | > 100 µM | > 100 µM | > 100 µM | > 100 µM | > 100 µM | > 100 µM | > 100 µM | > 100 µM | > 100 µM |  |  |  |  |  |  |  |  |  | 
CCOC(=O)c1c(O)[nH]c(=O)c(CC)c1C | > 100 µM | > 100 µM | > 100 µM | > 100 µM | > 100 µM | > 100 µM | > 100 µM | > 100 µM | > 100 µM | > 100 µM |  |  |  |  |  |  |  |  |  | 
CC(C)(C)c1cc(C(=O)/C=C/c2ccc(O)c(O)c2O)cc(C(C)(C)C)c1O | 13.3 µM | 28.9 µM | 15.6 µM | 13.9 µM | 21.7 µM | 27.8 µM | 54 µM | 10.2 µM | 20 µM | 12.6 µM |  |  |  |  |  |  |  |  |  | 
O=c1[nH]c2cc(C(F)(F)F)ccc2nc1Cc1ccccc1 | 85.8 µM | > 100 µM | > 100 µM | > 100 µM | > 100 µM | > 100 µM | > 100 µM | > 100 µM | 68.8 µM | > 100 µM |  |  |  |  |  |  |  |  |  | 
CC(=O)Nc1ccc(Nc2cc(=O)n(C)c(=O)[nH]2)cc1 | > 100 µM | > 100 µM | > 100 µM | > 100 µM | > 100 µM | > 100 µM | > 100 µM | > 100 µM | > 100 µM | > 100 µM |  |  |  |  |  |  |  |  |  | 
Cc1nc(-c2ccccc2)c(C)n2c1nc1ccccc12 | 88.9 µM | > 100 µM | > 100 µM | 79.1 µM | > 100 µM | > 100 µM | > 100 µM | > 100 µM | 40.9 µM | 66.3 µM |  |  |  |  |  |  |  |  |  | 
O=C(O)c1cccc(S(=O)(=O)NN2C(=O)CSC2c2ccccc2)c1 (stereo not given) | > 100 µM | > 100 µM | > 100 µM | > 100 µM | > 100 µM | > 100 µM | > 100 µM | > 100 µM | > 100 µM | > 100 µM |  |  |  |  |  |  |  |  |  | 
N#Cc1cccc(C2ON=C(c3ccc([N+](=O)[O-])cc3)N2C23CC4CC(CC(C4)C2)C3)c1 (stereo not given) | > 100 µM | > 100 µM | > 100 µM | > 100 µM | > 100 µM | > 100 µM | > 100 µM | > 100 µM | > 100 µM | > 100 µM |  |  |  |  |  |  |  |  |  | 
N=C(/C=C/c1ccc(-c2cn3cc(/C=C/C(=N)N4CCCC4)ccc3n2)cc1)N1CCCC1 | > 100 µM | > 100 µM | > 100 µM | > 100 µM | > 100 µM | > 100 µM | > 100 µM | > 100 µM | > 100 µM | > 100 µM |  |  |  |  |  |  |  |  |  | 
CCOC(=O)c1cccc(NC(=O)CBr)c1 | 3.24 µM | 1.29 µM | 1.16 µM | 1.96 µM | 1.63 µM | 14.6 µM | 3.47 µM | 2.6 µM | 2.77 µM | 3.31 µM |  |  |  |  |  |  |  |  |  | 
O=C(c1ccc(Cl)cc1Cl)N(Cc1cccnc1)C(=S)N(Cc1cccnc1)C(=O)c1ccc(Cl)cc1Cl | 33.2 µM | > 100 µM | 34.4 µM | 12.9 µM | > 100 µM | 41.5 µM | 30.2 µM | 4.43 µM | 44.6 µM | 14 µM |  |  |  |  |  |  |  |  |  | 
